According to patent publication US9708590B2, “Crystal structure of human α-N-acetylglucosaminidase” (Shire Human Genetic Therapies, Inc., priority 2010, dated 2017):

Experiments:
[1] = tested on: MSP III-B derived fibroblasts; details: in vitro, Malinowska et al. (2009); cited from earlier work
[2] = Solubility of the activity-assay substrate in water; format: physicochemical; details: required DMSO to be dissolved
Procedure: A 10 mM stock of substrate was prepared by dissolving 5 mg of 4-methylumbelliferyl-N-acetyl-α-D-glucosaminide in 250 μL of 100% DMSO first. Naglu activity assay reaction buffer was then added to bring the volume up to […]. This 10 mM Substrate stock was further diluted 10-fold with reaction buffer to make the 1 mM substrate solution. Un-used 10 mM substrate stock was stored in −80° C. for up to one month. Samples and controls were pre-diluted in reaction buffer. 10 μL of each pre-diluted sample/control was applied in duplicate wells on a black clear bottom 96 well plate. 10 μL of reaction buffer was added to two wells of the plate and served as reaction buffer control. 75 μL of 1 mM substrate was added to each well that contained 10 μL of sample/control. The plate was sealed with plate sealer and wrapped with aluminum foil. The plate was placed in 37° C. Jitterbug and incubated with shaking setting at #1 for 1 hour. Prior to the completion of incubation, standards were prepared by diluting the stock (1000 μM) of 4-methlyumbelliferyl sodium salt down to 25 μM, 12.5 μM, 6.25 μM, 3.12 μM, 1.56 μM, 0.78 μM, 0 μM with water. At the completion of incubation, 85 μL of each of the seven standards was loaded on the plate in duplicate. […] The plate was measured for fluorescence at 360/460 (Excitation/Emission) using a Molecular Devices SpectraMax Plus M2 plate reader.

In the case of `O=c1c(-c2ccc(O)cc2)coc2cc(O)cc(O)c12` [gensteine], the “effect on GAG synthesis” value [1] is given as “inhibit GAG synthesis”.
For `CC(=O)N[C@H]1[C@@H](Oc2ccc3c(C)cc(=O)oc3c2)O[C@H](CO)[C@@H](O)[C@@H]1O` [4-methylumbelliferyl-N-acetyl-α-D-glucosaminide], the solubility in water [2] was “very low solubility in water”.
